Assay [1] has as its system K562. Description: Maximum level of percentage of benzidine-positive (hemoglobin-containing) K562 cells reached with in 9 days at 3 mM concentration. The assay is classed as functional, Homo sapiens.
For assay [2], the system named is K562. Description: Maximum level of percentage of benzidine-positive (hemoglobin-containing) K562 cells reached with in 9 days at 4 mM concentration. It is filed as functional, Homo sapiens.
Assay [3] has as its system K562. The assay can be described thus: In vitro inhibition of cell growth against human myeloid leukemia K562(S) cells. The assay is classed as functional, cell-based.
For assay [4], the system named is K562. Description: Inhibition of cell growth against human myeloid leukemia K562(S) cells. It is filed as functional, cell-based.
Assay [5] has as its system K562. The assay can be described thus: Evaluated for erythroid induction of benzidine-positive K562 cells at concentration 2 mM after 9 day induction period. The assay is classed as functional, Homo sapiens.
The subject of assay [6] is K562. Description: Compound was evaluated for erythroid induction of benzidine-positive K562 cells at concentration 1 mM after 9 day induction period. The assay is classed as functional, Homo sapiens.
Assay [7] concerns K562. Description: Compound was evaluated for erythroid induction of benzidine-positive K562 cells at concentration 4 mM after 9 day induction period. The assay is classed as functional, Homo sapiens.
Assay [8] concerns K562. The assay can be described thus: Compound was evaluated for erythroid induction of benzidine-positive K562 cells at concentration 3 mM after 9 day induction period. It is filed as functional, Homo sapiens.
Assay [9] concerns K562. The assay can be described thus: Effect of compound on erythroid differentiation of K562 cells was determined after a period of 5 days at concentration 4 mM. The assay is classed as functional, Homo sapiens.
The test system of assay [10] is K562. Description: Effect of compound on erythroid differentiation of K562 cells was determined after a period of 3 days at concentration 4 mM. It is filed as functional, Homo sapiens.
The subject of assay [11] is K562. Description: Evaluated for erythroid induction of benzidine-positive K562 cells at concentration 3 mM. It is filed as functional, Homo sapiens.
The test system of assay [12] is K562. Description: Effect of compound on erythroid differentiation of K562 cells was determined after a period of 7 days at concentration 4 mM. The assay is classed as functional, Homo sapiens.
Assay [13] relates to K562. Description: Effect of compound on erythroid differentiation of K562 cells was determined after a period of 9 days at concentration 4 mM. The assay is classed as functional, Homo sapiens.
For assay [14], the system named is K562. The assay can be described thus: Compound was evaluated for erythroid induction of benzidine-positive K562 cells at concentration 5 mM after 9 day induction period. The assay is classed as functional, Homo sapiens.
Assay [15] relates to K562. The assay can be described thus: Compound (2 mM) was evaluated for maximum level of percentage of benzidine-positive (hemoglobin-containing) K562 cells in the presence of retinoic acid (5 uM). The assay is classed as functional, Homo sapiens.
In assay [16] the test system is K562. The assay can be described thus: Compound (2 mM) was evaluated for maximum level of percentage of benzidine-positive (hemoglobin-containing) K562 cells in the presence of ara-C (25 nM). The assay is classed as functional, Homo sapiens.
In assay [17] the test system is K562. Description: Compound was evaluated for erythroid induction of benzidine-positive K562 cells at concentration 4 mM. The assay is classed as functional, Homo sapiens.
The subject of assay [18] is K562. The assay can be described thus: Compound (2 mM) was evaluated for maximum level of percentage of benzidine-positive (hemoglobin-containing) K562 cells in the presence of mithramycin (5 nM). The assay is classed as functional, Homo sapiens.
Assay [19] deals with K562. Description: Compound was evaluated for erythroid induction of benzidine-positive K562 cells at concentration 5 mM. It is filed as functional, Homo sapiens.
Assay [20] has as its system K562. Description: Compound (2 mM) was evaluated for maximum level of percentage of benzidine-positive (hemoglobin-containing) K562 cells in the presence of retinoic acid (5 µM).
The test system of assay [21] is K562. The assay can be described thus: Effect of compound on erythroid differentiation of K562 cells was determined after a period of 9 days at concentration 500 nM. It is filed as functional, Homo sapiens.
Assay [22] deals with K562. The assay can be described thus: Effect of compound on erythroid differentiation of K562 cells was determined after a period of 7 days at concentration 500 nM. The assay is classed as functional, Homo sapiens.
In assay [23] the test system is K562. The assay can be described thus: Effect of compound on erythroid differentiation of K562 cells was determined after a period of 5 days at concentration 500 nM. It is filed as functional, Homo sapiens.
Assay [24] deals with K562. The assay can be described thus: Effect of compound on erythroid differentiation of K562 cells was determined after a period of 3 days at concentration 500 nM. It is filed as functional, Homo sapiens.
The test system of assay [25] is K562. The assay can be described thus: Effect of compound on erythroid differentiation of K562 cells was determined after a period of 3 days at concentration 20 nM. It is filed as functional, Homo sapiens.
The test system of assay [26] is K562. Description: The compound was evaluated for inhibition of cell growth against human myeloid leukemia K562(S) cells. The assay is classed as functional, cell-based.
Assay [27] concerns K562. The assay can be described thus: Effect of compound on erythroid differentiation of K562 cells was determined after a period of 7 days at concentration 20 nM. It is filed as functional, Homo sapiens.
In assay [28] the test system is K562. Description: Effect of compound on erythroid differentiation of K562 cells was determined after a period of 5 days at concentration 20 nM. It is filed as functional, Homo sapiens.
In assay [29] the test system is K562. The assay can be described thus: Effect of compound on erythroid differentiation of K562 cells was determined after a period of 9 days at concentration 20 nM. The assay is classed as functional, Homo sapiens.

As a reminder, the IC50 is the concentration that inhibits the measured activity by half. Lower therefore signals greater potency. As to `CC1(C)OCC(C2OC3OC(C)(C)OC3C2O)O1` (stereo not drawn), the results for the Erythroid induction in the assay on K562 [1] and with K562 [2] were 26% and 18%, respectively. For the same molecule, half-maximal inhibition with K562 [3] (IC50) was put at 2800 µM.
As to `CCCC(=O)OC1C(C(O)CO)OC2OC(C)(C)OC21` (stereo not drawn), the IC50 in the assay on K562 [4] is 800 µM. Further, in the assay on K562 [5], the Erythroid induction was found to be 25.4%.
In the assay on K562 [4], `CCCCCC(=O)OC1C(C(O)CO)OC2OC(C)(C)OC21` (stereo not drawn) gave an IC50 of 1200 µM. In addition, the Erythroid induction with K562 [6] is 10.3%; with K562 [5], 21%.
In the assay on K562 [4], `CCCCC(=O)OC1C(C(O)CO)OC2OC(C)(C)OC21` (stereo not drawn) gave a half-inhibitory concentration (IC50) of 2000 µM. Further, the Erythroid induction is on record as 25% with K562 [7], 28% in the assay on K562 [8] and 24% with K562 [5].
`CC(C)C(=O)O`: the Erythroid induction in the assay with K562 [9] was 14%; in the assay on K562 [10] it was 12%; in the assay on K562 [11] it was 14%; in the assay on K562 [12] it was 12%; with K562 [13] it was 8%. Also, in the assay on K562 [4], half-maximal inhibition (IC50) required 4800 µM.
`CCC(=O)OC1C(C(O)CO)OC2OC(C)(C)OC21` (stereo not drawn) returned a half-maximal inhibitory concentration (IC50) with K562 [4] of 2400 µM. The results for the Erythroid induction in the assay on K562 [7], with K562 [8] and in the assay with K562 [5] were 25%, 19.6% and 21%, respectively.
In the case of `CC(CC(=O)OC1C(C(O)CO)OC2OC(C)(C)OC21)c1ccccc1` (stereo not drawn), in the assay on K562 [4], the half-maximal inhibitory concentration (IC50) amounted to 500 µM. Moreover, in the assay on K562 [6], the Erythroid induction is on record as 15%.
In the assay on K562 [4], `CC(C)(C)CC(=O)OC1C(C(O)CO)OC2OC(C)(C)OC21` (stereo not drawn) returned a concentration for half-maximal inhibition (IC50) of 1200 µM. The molecule further yielded an Erythroid induction with K562 [5] of 20%.
For the molecule `CC(C)CC(=O)OC1C(C(O)CO)OC2OC(C)(C)OC21` (stereo not drawn), the IC50 in the assay with K562 [4] stood at 1000 µM. The Erythroid induction in the assay on K562 [5] was 12%.
In the assay on K562 [4], `CC1(C)OC2OC(C(O)CO)C(OC(=O)CC(c3ccccc3)c3ccccc3)C2O1` (stereo not drawn) came in with an IC50 of 500 µM. In the assay on K562 [6], the Erythroid induction was 14%.
Turning to `CC1(C)OC2OC(C(O)CO)C(OC(=O)C3CCCC3)C2O1` (stereo not drawn), the values for the Erythroid induction in the assay with K562 [14], with K562 [7] and in the assay with K562 [8] were 8%, 16.8% and 7%, respectively. The IC50 with K562 [4] came out at 2500 µM.
Take `CC1(C)OC2OC(C(O)CO)C(OC(=O)C(C)(C)C)C2O1` (stereo not drawn): the Erythroid induction in the assay with K562 [15] amounted to 67%; in the assay with K562 [9] it was 25%; with K562 [16], 90%; in the assay with K562 [10], 22%; in the assay with K562 [17], 50.2%; in the assay with K562 [11] it was 51.7%. The Erythroid induction is given as 50.7% in the assay with K562 [12], 34% with K562 [18] and 59% in the assay with K562 [13]. This molecule also came in with an IC50 in the assay on K562 [4] of 1500 µM.
In the case of `CC(C)C(=O)OC1C(C(O)CO)OC2OC(C)(C)OC21` (stereo not drawn), the Erythroid induction in the assay on K562 [9] came out at 35%; in the assay with K562 [16], 78%; with K562 [10] it was 20%; with K562 [17], 54.2%; with K562 [11], 43%; with K562 [19], 59%. Further, the Erythroid induction in the assay on K562 [12] stood at 56.8%; in the assay on K562 [13], 50%; with K562 [20] it was 55.8%. It took 2500 µM to reach half-maximal inhibition in the assay on K562 [4] (IC50).
As for `CC(=O)OC1C(C(O)CO)OC2OC(C)(C)OC21` (stereo not drawn), in the assay with K562 [4], it took 3800 µM to reach half-maximal inhibition (IC50). In the assay with K562 [2], the Erythroid induction is given as 27%.
As to `CCCC(=O)O` [BUTYRIC ACID], half-maximal inhibition with K562 [4] (IC50) required 2400 µM. This molecule also displayed an Erythroid induction in the assay on K562 [11] of 35%.
On to `Nc1ccn([C@@H]2O[C@H](CO)[C@@H](O)[C@@H]2O)c(=O)n1` [CYTARABINE], for which the Erythroid induction was 93.2% in the assay with K562 [21]; 84.5% in the assay on K562 [22]; 95% in the assay on K562 [11]; 61.5% in the assay with K562 [23]; 45% in the assay on K562 [24]. Also, in the assay on K562 [4], inhibition was half-maximal at 0.5 µM (IC50).
Take `CC(C)(C)C(=O)O` [PIVALATE]: the Erythroid induction worked out at 9% with K562 [9]; 4% with K562 [10]; 12% in the assay on K562 [11]; 11% with K562 [12]; 6% in the assay with K562 [13]. Also, in the assay with K562 [4], it took 4500 µM to reach half-maximal inhibition (IC50).
Regarding `CO[C@H](C(=O)[C@@H](O)[C@@H](C)O)[C@@H]1Cc2cc3cc(O[C@H]4C[C@@H](O[C@@H]5C[C@@H](O)[C@H](O)[C@@H](C)O5)[C@H](O)[C@@H](C)O4)c(C)c(O)c3c(O)c2C(=O)[C@H]1O[C@H]1C[C@@H](O[C@@H]2C[C@@H](O)[C@@H](O[C@@H]3C[C@](C)(O)[C@H](O)[C@@H](C)O3)[C@@H](C)O2)[C@H](O)[C@@H](C)O1` [PLICAMYCIN], the Erythroid induction with K562 [25] is given as 15%; in the assay on K562 [11], 81%; in the assay with K562 [27], 75%; in the assay on K562 [28], 55%; with K562 [29], 80%. In the assay with K562 [26], this molecule registered an IC50 of 0.01 µM.
Turning to `CCC(=O)O` [PROPIONIC ACID], in the assay with K562 [4], the IC50 stood at 4000 µM. In the assay with K562 [7], this molecule showed an Erythroid induction of 10%.

The record behind these values is ChEMBL document CHEMBL1131873, “Induction of erythroid differentiation of human K562 cells by 3-O-acyl-1,2-O-isopropylidene-D-glucofuranose derivatives” (Bioorg Med Chem Lett, 1999).
